Tests used:
[1] = tested on: THP-1; experiment: Cytotoxicity against human THP1 cells assessed as reduction of cell viability after 48 hrs; format: cell-based; conditions: THP-1, 48 h
[2] = tested on: Trypanosoma cruzi; experiment: Antitrypanosomatid activity against Trypanosoma cruzi CL Brener epimastigotes assessed as reduction of growth after 5 days; format: functional, organism-based; conditions: 120 h
[3] = tested on: Trypanosoma cruzi; experiment: Antitrypanosomatid activity against Trypanosoma cruzi Y epimastigotes assessed as reduction of growth after 5 days; format: functional, organism-based; conditions: 120 h
[4] = Ratio of IC50 for human THP1 cells to IC50 for Trypanosoma cruzi Tulahuen 2 epimastigotes; format: functional, THP-1
[5] = Ratio of IC50 for human THP1 cells to IC50 for Trypanosoma cruzi CL Brener epimastigotes; format: functional, THP-1
[6] = Ratio of IC50 for human THP1 cells to IC50 for Trypanosoma cruzi Y epimastigotes; format: functional, THP-1
[7] = tested on: Trypanosoma cruzi; experiment: Antitrypanosomatid activity against Trypanosoma cruzi Tulahuen 2 epimastigotes assessed as reduction of growth after 5 days; format: functional, organism-based; conditions: Tulahuen 2, 120 h

## [O-][n+]1onc2cc(C=Cc3ccc4c(c3)OCO4)ccc21
[1]
  IC50: 81 µM

## [O-][n+]1onc2cc(C=Cc3ccc(Cl)cc3)ccc21
[2]
  IC50: 7.5 µM
[3]
  IC50: 9 µM
[1]
  IC50: 66.7 µM
[4]
  Ratio IC50: 15.5
[5]
  Ratio IC50: 8.9
[6]
  Ratio IC50: 7.4

## [O-][n+]1onc2cc(/C=C/c3ccc4c(c3)OCO4)ccc21
[7]
  IC50: 5.3 µM
[2]
  IC50: 9 µM
[3]
  IC50: 7.3 µM
[1]
  IC50: 220 µM
[4]
  Ratio IC50: 41.5
[5]
  Ratio IC50: 24.4
[6]
  Ratio IC50: 30.1

## C(=C\c1ccc2nonc2c1)/c1ccc2c(c1)OCO2
[7]
  IC50: > 25 µM
[2]
  IC50: > 25 µM
[3]
  IC50: > 25 µM

## C(=C/c1ccc2nonc2c1)/c1ccc2c(c1)OCO2
[7]
  IC50: > 25 µM
[2]
  IC50: > 25 µM
[3]
  IC50: > 25 µM
[1]
  IC50: > 400 µM
[4]
  Ratio IC50: <40
[5]
  Ratio IC50: <40
[6]
  Ratio IC50: <40

## CN(C)c1ccc(/C=C/c2ccc3c(c2)no[n+]3[O-])cc1
[7]
  IC50: 15.7 µM
[2]
  IC50: 4.4 µM
[3]
  IC50: 22 µM
[1]
  IC50: > 400 µM
[4]
  Ratio IC50: >25
[5]
  Ratio IC50: >90
[6]
  Ratio IC50: >18

## CN(C)c1ccc(/C=C/c2ccc3nonc3c2)cc1
[7]
  IC50: > 25 µM
[2]
  IC50: > 25 µM

## O=C(O)c1ccc(/C=C/c2ccc3c(c2)no[n+]3[O-])cc1
[7]
  IC50: > 25 µM

## O=C(O)c1ccc(/C=C\c2ccc3c(c2)no[n+]3[O-])cc1
[7]
  IC50: > 25 µM

## N#Cc1ccc(/C=C\c2ccc3c(c2)no[n+]3[O-])cc1
[7]
  IC50: > 25 µM

## O=[N+]([O-])c1ccccc1/C=C/c1ccc2c(c1)no[n+]2[O-]
[7]
  IC50: 26.4 µM
[2]
  IC50: 11.1 µM

## [O-][n+]1onc2cc(/C=C/c3cccc(F)c3)ccc21
[7]
  IC50: 2.5 µM
[2]
  IC50: 10 µM
[3]
  IC50: 7.5 µM

## [O-][n+]1onc2cc(/C=C/c3ccc(Br)cc3)ccc21
[7]
  IC50: 8.7 µM
[2]
  IC50: 2.5 µM
[3]
  IC50: 5.5 µM

## [O-][n+]1onc2cc(/C=C/C3CCCCC3)ccc21
[7]
  IC50: 13.6 µM

## CCCC/C=C/c1ccc2c(c1)no[n+]2[O-]
[7]
  IC50: 19.7 µM
[2]
  IC50: 12.8 µM

## O=[N+]([O-])c1ccc(/C=C/c2ccc3c(c2)no[n+]3[O-])s1
[7]
  IC50: 6 µM
[2]
  IC50: 3.5 µM
[3]
  IC50: 4.5 µM

## [O-][n+]1onc2cc(/C=C\c3ccc4nonc4c3)ccc21
[7]
  IC50: > 25 µM

## [O-][n+]1onc2cc(/C=C/c3ccncc3)ccc21
[7]
  IC50: 15 µM
[3]
  IC50: 24 µM

## [O-][n+]1onc2cc(/C=C/c3ccc(Cl)cc3)ccc21
[1]
  IC50: > 200 µM

## [O-][n+]1onc2cc(/C=C\c3ccccc3)ccc21
[4]
  Ratio IC50: 8.9
[5]
  Ratio IC50: 4
[6]
  Ratio IC50: 7

## [O-][n+]1onc2cc(/C=C/c3ccc(C(F)(F)F)cc3)ccc21
[2]
  IC50: 4.5 µM
[3]
  IC50: 10 µM

## O=[N+]([O-])c1ccc(/C=C\c2ccc3c(c2)no[n+]3[O-])cc1
[2]
  IC50: 10.5 µM
[3]
  IC50: 13.5 µM

## CC(=O)Nc1ccc(/C=C\c2ccc3c(c2)no[n+]3[O-])cc1[N+](=O)[O-]
[7]
  IC50: 24 µM

## C=Cc1ccc2c(c1)no[n+]2[O-]
[7]
  IC50: > 25 µM

## [O-][n+]1onc2cc(/C=C\c3ccc4c(c3)OCO4)ccc21
[7]
  IC50: 2.9 µM
[2]
  IC50: 9 µM
[3]
  IC50: 8.5 µM
[1]
  IC50: 120 µM
[4]
  Ratio IC50: 41.4
[5]
  Ratio IC50: 13.3
[6]
  Ratio IC50: 14.1

## COc1ccc(/C=C/c2ccc3c(c2)no[n+]3[O-])cc1
[7]
  IC50: 8 µM
[2]
  IC50: 5 µM
[3]
  IC50: 8.5 µM

## COC(=O)/C=C/c1ccc2c(c1)no[n+]2[O-]
[7]
  IC50: > 25 µM

## O=[N+]([O-])c1ccccc1/C=C\c1ccc2c(c1)no[n+]2[O-]
[7]
  IC50: 24.4 µM
[2]
  IC50: 13.7 µM

## [O-][n+]1onc2cc(/C=C/c3cccs3)ccc21
[7]
  IC50: 0.6 µM
[2]
  IC50: 15 µM
[3]
  IC50: 12.2 µM

## [O-][n+]1onc2cc(/C=C/c3ccc(O)cc3)ccc21
[7]
  IC50: 10.2 µM
[2]
  IC50: 22.5 µM
[3]
  IC50: 25 µM

## N#Cc1ccc(/C=C/c2ccc3c(c2)no[n+]3[O-])cc1
[7]
  IC50: > 25 µM

## [O-][n+]1onc2cc(/C=C\c3ccc(Cl)cc3)ccc21
[1]
  IC50: 97 µM

## [O-][n+]1onc2cc(/C=C/c3ccccc3)ccc21
[1]
  IC50: 149 µM

## CC(=O)N1CCN(c2ccc(OCC3COC(Cn4ccnc4)(c4ccc(Cl)cc4Cl)O3)cc2)CC1 (stereo not given) [KETOCONAZOLE]
[4]
  Ratio IC50: 4.4
[5]
  Ratio IC50: 8.8
[6]
  Ratio IC50: 4.5

## CN(C/C=C/C#CC(C)(C)C)Cc1cccc2ccccc12 [TERBINAFINE]
[5]
  Ratio IC50: 7.8
[6]
  Ratio IC50: 7.4
